From patent US20240150333A1, “TAF1 INHIBITORS” (H. LEE MOFFITT CANCER CENTER AND RESEARCH INSTITUTE, INC., priority 2020, published 2024)
Entries after “also recorded” stand apart in the source; their conditions may differ.

Assays:
[1] = biological target: T1, TAF1-T (TAF1 tandem bromodomain, BD1 and BD2) (Homo sapiens, UniProt P21675); experiment: Differential scanning fluorimetry (DSF) thermal shift; format: binding
T1 construct: tandem bromodomain (residues 1373-1635); His6 (TEV-cleavable) (cleaved yes); host or cells: E. coli BL21 (DE3)
T1 sequence (P21675 1373-1635 isoform P21675-1): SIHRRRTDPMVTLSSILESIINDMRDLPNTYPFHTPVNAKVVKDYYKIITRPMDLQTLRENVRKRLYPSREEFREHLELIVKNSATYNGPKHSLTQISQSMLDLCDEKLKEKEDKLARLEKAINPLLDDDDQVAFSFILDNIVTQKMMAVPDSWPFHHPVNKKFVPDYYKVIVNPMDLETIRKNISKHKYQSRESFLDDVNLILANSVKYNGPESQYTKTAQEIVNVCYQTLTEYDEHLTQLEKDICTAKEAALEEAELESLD

[2] = biological target: T2, TAF1-T (TAF1 tandem bromodomain) (Homo sapiens, UniProt P21675); experiment: Isothermal titration calorimetry (ITC); format: binding; details: Table 3; 298.15 K
T2 construct: tandem bromodomain (residues 1373-1635); His6 (TEV-cleavable) (cleaved yes); host or cells: E. coli BL21 (DE3)
T2 sequence (P21675 1373-1635 isoform P21675-1): T1 sequence (P21675 1373-1635 isoform P21675-1)

panel of 32 bromodomains = experiment: Profiling across a panel of 32 bromodomains (DiscoveRx), overall statement; format: binding, human; details: 20 μM concentration
TRIM33(PHD, Bromo.) = experiment: Bromoscan selectivity profiling (DiscoveRx); format: binding, human; details: at 20,000 nM
Procedure: (§1) qPCR-based BRD binding assay. Another method for the determination of dissociation constants of BRD-ligand complexes is offered by DiscoveRx Corp. The assay is based on competition between test compound and immobilized high-affinity ligand for binding to the KAc site of BRDs. The amount of TAF1 remaining on an immobilized high-affinity ligand in the presence of ligand is measured using a quantitative real-time polymerase chain reaction (qPCR) method that detects the associated DNA label tagged to the BRD.
(§2) Inhibitor selectivity assays To assess target selectivity, compounds with highest biochemical and cellular activities can be profiled against panels of BRDs and kinases using the services of DiscoveRx and/or Reaction biology, as we have done previously.

BRPF2/BRD1 = biological target: T3, BRPF2/BRD1 (Homo sapiens, UniProt O95696); experiment: Bromoscan selectivity profiling (DiscoveRx); format: binding; details: at 20,000 nM
T3 construct: 32 bromodomains (by DiscoveRx); purchased DiscoveRx (BromoScan service)
T3 sequence (O95696 562-666 limits assumed): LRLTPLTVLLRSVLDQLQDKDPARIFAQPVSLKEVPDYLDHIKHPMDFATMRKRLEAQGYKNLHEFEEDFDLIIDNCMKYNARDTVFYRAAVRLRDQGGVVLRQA
Procedure: as §1, §2

WDR9(2) = biological target: T4, WDR9(2) (Homo sapiens, UniProt Q9NSI6); experiment: Bromoscan selectivity profiling (DiscoveRx); format: binding; details: at 20,000 nM
T4 construct: purchased DiscoveRx
T4 sequence (Q9NSI6 1313-1418 limits assumed): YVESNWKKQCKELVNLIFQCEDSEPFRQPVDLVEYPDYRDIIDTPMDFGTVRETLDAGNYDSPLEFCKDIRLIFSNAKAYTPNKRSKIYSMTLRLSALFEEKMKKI
Procedure: as §1, §2

CECR2 = biological target: T5, CECR2 (Homo sapiens, UniProt Q9BXF3); experiment: Bromoscan selectivity profiling (DiscoveRx); format: binding; details: at 20,000 nM
T5 construct: purchased DiscoveRx
T5 sequence (Q9BXF3 434-538 limits assumed): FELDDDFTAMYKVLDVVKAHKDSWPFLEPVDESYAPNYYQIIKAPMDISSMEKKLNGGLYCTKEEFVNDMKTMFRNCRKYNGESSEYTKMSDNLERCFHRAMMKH
Procedure: as §1, §2

GCN5L(2) = biological target: T6, GCN5L(2) (Homo sapiens, UniProt Q92830); experiment: Bromoscan selectivity profiling (DiscoveRx); format: binding; details: at 20,000 nM
T6 construct: purchased DiscoveRx
T6 sequence (Q92830 728-832 limits assumed): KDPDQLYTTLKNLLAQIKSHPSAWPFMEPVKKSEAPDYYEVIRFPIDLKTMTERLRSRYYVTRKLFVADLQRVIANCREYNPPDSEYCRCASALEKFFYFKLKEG
Procedure: as §1, §2

BRD2(2) = biological target: T7, BRD2(2) (Homo sapiens, UniProt P25440); experiment: Bromoscan selectivity profiling (DiscoveRx); format: binding; details: at 20,000 nM
T7 construct: 32 bromodomains (by DiscoveRx); purchased DiscoveRx (BromoScan service)
T7 sequence (P25440 344-453 limits assumed): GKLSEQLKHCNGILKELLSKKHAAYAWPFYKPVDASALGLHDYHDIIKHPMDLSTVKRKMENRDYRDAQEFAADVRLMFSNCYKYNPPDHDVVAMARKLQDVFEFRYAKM
Procedure: as §1, §2

PCAF = biological target: T8, PCAF (Homo sapiens, UniProt Q92831); experiment: Bromoscan selectivity profiling (DiscoveRx); format: binding; details: at 20,000 nM
T8 construct: purchased DiscoveRx
T8 sequence (Q92831 723-827 limits assumed): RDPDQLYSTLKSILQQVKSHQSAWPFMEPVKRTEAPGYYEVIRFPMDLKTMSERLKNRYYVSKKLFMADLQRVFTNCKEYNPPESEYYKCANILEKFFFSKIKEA
Procedure: as §1, §2

FALZ = biological target: T9, FALZ (Homo sapiens, UniProt Q12830); experiment: Bromoscan selectivity profiling (DiscoveRx); format: binding; details: at 20,000 nM
T9 construct: purchased DiscoveRx
Procedure: as §1, §2

TAF1(2) = biological target: T10, TAF1(2) (Homo sapiens, UniProt P21675); experiment: Bromoscan selectivity profiling (DiscoveRx); format: binding; details: at 20,000 nM
T10 construct: purchased DiscoveRx
Procedure: as §1, §2

CREBBP = biological target: T11, CREBBP (Homo sapiens, UniProt Q92793); experiment: Bromoscan selectivity profiling (DiscoveRx); format: binding; details: at 20,000 nM
T11 construct: purchased DiscoveRx
T11 sequence (Q92793 1085-1192 limits assumed): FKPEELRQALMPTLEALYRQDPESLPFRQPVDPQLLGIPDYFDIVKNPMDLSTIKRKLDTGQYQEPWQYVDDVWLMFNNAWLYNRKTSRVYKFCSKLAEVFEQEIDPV
Procedure: as §1, §2

BAZ2A = biological target: T12, BAZ2A (Homo sapiens, UniProt Q9UIF9); experiment: Bromoscan selectivity profiling (DiscoveRx); format: binding; details: at 20,000 nM
T12 construct: 32 bromodomains (by DiscoveRx); purchased DiscoveRx (BromoScan service)
T12 sequence (Q9UIF9 1793-1897 limits assumed): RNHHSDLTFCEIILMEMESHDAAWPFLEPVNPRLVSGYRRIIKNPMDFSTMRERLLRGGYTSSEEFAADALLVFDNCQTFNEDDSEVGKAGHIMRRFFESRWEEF
Procedure: as §1, §2

TRIM24(PHD, Bromo.) = biological target: T13, TRIM24(PHD, Bromo.) (Homo sapiens, UniProt O15164); experiment: Bromoscan selectivity profiling (DiscoveRx); format: binding; details: at 20,000 nM
T13 construct: TRIM24(PHD, Bromo.); purchased DiscoveRx
T13 sequence (O15164 824-1006 limits assumed): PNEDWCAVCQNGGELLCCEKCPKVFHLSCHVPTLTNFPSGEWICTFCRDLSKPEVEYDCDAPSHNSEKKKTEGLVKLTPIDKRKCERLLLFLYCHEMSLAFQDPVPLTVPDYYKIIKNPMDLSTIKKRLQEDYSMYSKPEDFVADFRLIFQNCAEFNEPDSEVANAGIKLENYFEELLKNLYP
Procedure: as §1, §2

BRD3(1) = biological target: T14, BRD3(1) (Homo sapiens, UniProt Q15059); experiment: Bromoscan selectivity profiling (DiscoveRx); format: binding; details: at 20,000 nM
T14 construct: 32 bromodomains (by DiscoveRx); purchased DiscoveRx (BromoScan service)
T14 sequence (Q15059 34-140 limits assumed): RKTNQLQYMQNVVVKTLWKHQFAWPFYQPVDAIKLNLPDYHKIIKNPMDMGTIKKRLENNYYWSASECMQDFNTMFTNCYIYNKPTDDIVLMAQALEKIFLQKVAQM
Procedure: as §1, §2

BRD3(2) = biological target: T15, BRD3(2) (Homo sapiens, UniProt Q15059); experiment: Bromoscan selectivity profiling (DiscoveRx); format: binding; details: at 20,000 nM
T15 construct: 32 bromodomains (by DiscoveRx); purchased DiscoveRx (BromoScan service)
T15 sequence (Q15059 306-415 limits assumed): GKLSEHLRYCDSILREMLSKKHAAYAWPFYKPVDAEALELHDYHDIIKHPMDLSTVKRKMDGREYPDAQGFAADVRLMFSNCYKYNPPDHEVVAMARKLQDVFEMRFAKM
Procedure: as §1, §2

BAZ2B = biological target: T16, BAZ2B (Homo sapiens, UniProt Q9UIF8); experiment: Bromoscan selectivity profiling (DiscoveRx); format: binding; details: at 20,000 nM
T16 construct: 32 bromodomains (by DiscoveRx); purchased DiscoveRx (BromoScan service)
T16 sequence (Q9UIF8 2060-2164 limits assumed): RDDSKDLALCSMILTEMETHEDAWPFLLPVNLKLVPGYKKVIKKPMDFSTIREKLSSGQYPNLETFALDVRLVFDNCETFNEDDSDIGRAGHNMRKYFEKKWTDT
Procedure: as §1, §2

ATAD2B = biological target: T17, ATAD2B (Homo sapiens, UniProt Q9ULI0); experiment: Bromoscan selectivity profiling (DiscoveRx); format: binding; details: at 20,000 nM
T17 construct: 32 bromodomains (by DiscoveRx); purchased DiscoveRx (BromoScan service)
T17 sequence (Q9ULI0 951-1066 limits assumed): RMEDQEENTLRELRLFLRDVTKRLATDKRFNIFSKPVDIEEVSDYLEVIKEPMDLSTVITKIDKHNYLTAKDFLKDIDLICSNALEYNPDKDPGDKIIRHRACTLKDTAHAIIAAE
Procedure: as §1, §2

BRD4(2) = biological target: T18, BRD4(2) (Homo sapiens, UniProt O60885); experiment: Bromoscan selectivity profiling (DiscoveRx); format: binding; details: at 20,000 nM
T18 construct: purchased DiscoveRx
Procedure: as §1, §2

BRD2(1) = biological target: T19, BRD2(1) (Homo sapiens, UniProt P25440); experiment: Bromoscan selectivity profiling (DiscoveRx); format: binding; details: at 20,000 nM
T19 construct: 32 bromodomains (by DiscoveRx); purchased DiscoveRx (BromoScan service)
T19 sequence (P25440 74-180 limits assumed): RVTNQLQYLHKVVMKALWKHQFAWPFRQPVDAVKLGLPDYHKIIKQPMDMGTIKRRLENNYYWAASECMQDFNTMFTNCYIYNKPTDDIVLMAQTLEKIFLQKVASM
Procedure: as §1, §2

PBRM1(5) = biological target: T20, PBRM1(5) (Homo sapiens, UniProt Q86U86); experiment: Bromoscan selectivity profiling (DiscoveRx); format: binding; details: at 20,000 nM
T20 construct: PBRM1(5); purchased DiscoveRx
T20 sequence (Q86U86 653-763 limits assumed): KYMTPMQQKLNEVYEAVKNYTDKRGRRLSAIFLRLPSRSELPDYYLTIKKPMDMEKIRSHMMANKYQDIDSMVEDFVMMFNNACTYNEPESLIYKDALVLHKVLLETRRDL
Procedure: as §1, §2

ATAD2A = biological target: T21, ATAD2A (Homo sapiens, UniProt Q6PL18); experiment: Bromoscan selectivity profiling (DiscoveRx); format: binding; details: at 20,000 nM
T21 construct: 32 bromodomains (by DiscoveRx); purchased DiscoveRx (BromoScan service)
T21 sequence (Q6PL18 980-1092 limits assumed): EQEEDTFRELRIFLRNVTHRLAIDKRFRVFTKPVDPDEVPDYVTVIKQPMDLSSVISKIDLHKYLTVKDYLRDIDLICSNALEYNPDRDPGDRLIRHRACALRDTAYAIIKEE
Procedure: as §1, §2

BRPF1 = biological target: T22, BRPF1 (Homo sapiens, UniProt P55201); experiment: Bromoscan selectivity profiling (DiscoveRx); format: binding; details: at 20,000 nM
T22 construct: purchased DiscoveRx
T22 sequence (P55201 628-732 limits assumed): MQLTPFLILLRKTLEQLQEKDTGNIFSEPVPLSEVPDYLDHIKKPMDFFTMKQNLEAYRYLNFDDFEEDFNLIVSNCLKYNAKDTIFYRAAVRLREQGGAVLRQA
Procedure: as §1, §2

BRDT(2) = biological target: T23, BRDT(2) (Homo sapiens, UniProt Q58F21); experiment: Bromoscan selectivity profiling (DiscoveRx); format: binding; details: at 20,000 nM
T23 construct: BRDT(2); purchased DiscoveRx
Procedure: as §1, §2

BRD9 = biological target: T24, BRD9 (Homo sapiens, UniProt Q9H8M2); experiment: Bromoscan selectivity profiling (DiscoveRx); format: binding; details: at 20,000 nM
T24 construct: purchased DiscoveRx
T24 sequence (Q9H8M2 136-240 limits assumed): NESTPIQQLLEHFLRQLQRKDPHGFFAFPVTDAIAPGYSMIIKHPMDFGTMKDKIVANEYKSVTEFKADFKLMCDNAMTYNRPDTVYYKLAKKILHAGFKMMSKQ
Procedure: as §1, §2

TAF1-2 (TAF1 BD2) = biological target: T25, TAF1-2 (TAF1 BD2) (Homo sapiens, UniProt P21675); experiment: Isothermal titration calorimetry (ITC); format: binding; details: Table 3; 288.15 K
T25 construct: BD2 (residues 1501-1635); His6 (TEV-cleavable) (cleaved yes); host or cells: E. coli BL21 (DE3)
T25 sequence (P21675 1501-1635 isoform P21675-1): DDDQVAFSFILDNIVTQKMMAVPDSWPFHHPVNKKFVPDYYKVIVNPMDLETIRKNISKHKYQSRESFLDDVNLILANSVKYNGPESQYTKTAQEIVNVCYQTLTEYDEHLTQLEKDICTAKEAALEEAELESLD

A549 lung cancer cells = experiment: p53 pathway markers by western blot in A549 cells; format: cell-based, human

DSF (ΔTm, ° C.) TAF1-T ([1]; Table 1 (Example 1)): 5.8 ± 0.5 °C
ΔTm at 100 µM ([1]; Table 2 (Example 2), 100 μM compound, standard deviation from two experiments): 3.1 °C
DSF (ΔTm, ° C.) TAF1-T ([1]; Table 2 (Example 2), 100 μM compound, standard deviation from two experiments, 100 µM): 3.2 ± 0.1 °C
ITC N (stoichiometry), TAF1-T [2]: 1.11
ITC TΔS, TAF1-T [2]: 2.26 kcal/mol
ITC ΔH, TAF1-T [2]: -5.82 kcal/mol
inhibition at 20 µM (BRPF2/BRD1): 6%
inhibition at 20 µM (WDR9(2)): 84%
inhibition at 20 µM (CECR2): 92.3%
inhibition at 20 µM (GCN5L(2)): 27%
inhibition at 20 µM (BRD2(2)): 84%
inhibition at 20 µM (PCAF): 18%
inhibition at 20 µM (FALZ): 11%
inhibition at 20 µM (TAF1(2)): 99.8%
inhibition at 20 µM (CREBBP): 20%
inhibition at 20 µM (BAZ2A): 0%
inhibition at 20 µM (TRIM24(PHD, Bromo.)): 6%
inhibition at 20 µM (BRD3(1)): 60%
inhibition at 20 µM (BRD3(2)): 82%
inhibition at 20 µM (BAZ2B): 0%
inhibition at 20 µM (ATAD2B): 0%
inhibition at 20 µM (BRD4(2)): 69%
inhibition at 20 µM (BRD2(1)): 46%
inhibition at 20 µM (PBRM1(5)): 0%
inhibition at 20 µM (ATAD2A): 0%
inhibition at 20 µM (BRPF1): 11%
inhibition at 20 µM (BRDT(2)): 38%
inhibition at 20 µM (BRD9): 13%
ITC N (stoichiometry), TAF1-2 (TAF1-2 (TAF1 BD2)): 0.99
ITC TΔS, TAF1-2 (TAF1-2 (TAF1 BD2)): 3.26 kcal/mol
ITC ΔH, TAF1-2 (TAF1-2 (TAF1 BD2)): -4.36 kcal/mol
Structure (SMILES): C[C@@H]1COCCN1c1cc(C2([S@](C)(=N)=O)CC2)nc(-c2cc[nH]c3nccc2-3)n1 [AZD6738]
Interaction with BRD2-2, BRD3-2, BRD4-2, CECR2 and WDR9-2 (panel of 32 bromodomains): interacted weakly; also recorded: weakly interacted
% Inhibition TRIM33(PHD, Bromo.) (TRIM33(PHD, Bromo.)): 0%
p53 and p21 levels (A549 lung cancer cells; A549, 10 μM, 24 h, western blot): modest increase
MDMX levels (A549 lung cancer cells; A549, western blot): modest effect
